{"source": "patent US8642256B2", "about": "“Kinase and ubiquination assays” (Life Technologies Corporation, priority 2005, dated 2014)", "key": {"RAW 264.7 cells": {"test_system": "RAW 264.7 cells", "assay": "Assay of kinase from cell lysate (GFP-cJun phosphorylation, TR-FRET)", "format": "cell-based, mouse", "conditions": "duplicates", "method": "RAW 264.7 cells (mouse macrophage cell line) were serum starved overnight and stimulated (or not) with 10 ug/ml of Anisomycin for 15 minutes prior to lysates being prepared. Lysates were prepared following a standard protocol, e.g., as described in the Kinase Activity Assay Kit protocol, Rev. A1 Dec. 9, 2005, Catalog#KNZ0031, BioSource (California). The protocol is outlined below.\nWhen using the Omnia™ Lysate Assay to determine MAPKAP-K2 activity in cell lysates, the following procedure for sample preparation may be used. This protocol has been successfully applied to several cell lines of human and mouse origin. • 1. Thaw Omnia Cell Extraction Buffer (BioSource, California) on ice. • 2. Set up and stimulate cells as desired. • 3. Collect cells in cold PBS by centrifugation (for non-adherent cells) or scraping from culture plates (for adherent cells). • 4. Centrifuge the cells at 1,500 rpm for 5 minutes at 4° C. • 5. Aspirate the PBS. • 6. Resuspend the cell pellet in Omnia Cell Extraction Buffer and transfer the lysate to a 1.5 mL microcentrifuge tube. The volume of Omnia Cell Extraction Buffer depends on the cell number and expression level of MAPKAP-K2. The optimal protein concentration of lysate should be in the range of 5 to 10 mg/mL. Add an appropriate amount of protease and phosphatase inhibitor (typically provided as a 100× stock solution) before using. Under these conditions, using 0.005 mL (25-50 μg) of the clarified cell extract will be sufficient for measurement of MAPKAP-K2 activity. • 7. Lyse the cells at 4° C. for 30 minutes on a rotator. Whole cell extract can then be briefly sonicated or put through a syringe and needle if desired. • 8. Centrifuge at 13,000 rpm for 20-30 minutes at 4° C. • 9. Transfer the clarified cell extracts to clean microcentrifuge tubes. • 10. The clarified cell extract should be stored at −80° C. until ready for analysis. Avoid repeated freeze-thaw cycles. In preparation for performing the assay, allow the samples to thaw on ice. Mix well prior to analysis.\nLysate was serially diluted in buffer and 5 uL aliquots were assayed against 400 nM GFP-cJun in assay buffer containing 100 uM ATP. Assays were stopped by addition of EDTA and antibody, with a final anti-phospho cJun antibody concentration of 2 nM. The plate was read after 1 hour incubation and the data collected. Samples were performed in duplicates."}, "[1]": {"target": "T1, Epidermal Growth Factor Receptor (EGFR) Tyrosine Kinase (Homo sapiens, UniProt P00533)", "T1 construct": "purchased Invitrogen P2628", "T1 sequence (P00533 25-1210)": "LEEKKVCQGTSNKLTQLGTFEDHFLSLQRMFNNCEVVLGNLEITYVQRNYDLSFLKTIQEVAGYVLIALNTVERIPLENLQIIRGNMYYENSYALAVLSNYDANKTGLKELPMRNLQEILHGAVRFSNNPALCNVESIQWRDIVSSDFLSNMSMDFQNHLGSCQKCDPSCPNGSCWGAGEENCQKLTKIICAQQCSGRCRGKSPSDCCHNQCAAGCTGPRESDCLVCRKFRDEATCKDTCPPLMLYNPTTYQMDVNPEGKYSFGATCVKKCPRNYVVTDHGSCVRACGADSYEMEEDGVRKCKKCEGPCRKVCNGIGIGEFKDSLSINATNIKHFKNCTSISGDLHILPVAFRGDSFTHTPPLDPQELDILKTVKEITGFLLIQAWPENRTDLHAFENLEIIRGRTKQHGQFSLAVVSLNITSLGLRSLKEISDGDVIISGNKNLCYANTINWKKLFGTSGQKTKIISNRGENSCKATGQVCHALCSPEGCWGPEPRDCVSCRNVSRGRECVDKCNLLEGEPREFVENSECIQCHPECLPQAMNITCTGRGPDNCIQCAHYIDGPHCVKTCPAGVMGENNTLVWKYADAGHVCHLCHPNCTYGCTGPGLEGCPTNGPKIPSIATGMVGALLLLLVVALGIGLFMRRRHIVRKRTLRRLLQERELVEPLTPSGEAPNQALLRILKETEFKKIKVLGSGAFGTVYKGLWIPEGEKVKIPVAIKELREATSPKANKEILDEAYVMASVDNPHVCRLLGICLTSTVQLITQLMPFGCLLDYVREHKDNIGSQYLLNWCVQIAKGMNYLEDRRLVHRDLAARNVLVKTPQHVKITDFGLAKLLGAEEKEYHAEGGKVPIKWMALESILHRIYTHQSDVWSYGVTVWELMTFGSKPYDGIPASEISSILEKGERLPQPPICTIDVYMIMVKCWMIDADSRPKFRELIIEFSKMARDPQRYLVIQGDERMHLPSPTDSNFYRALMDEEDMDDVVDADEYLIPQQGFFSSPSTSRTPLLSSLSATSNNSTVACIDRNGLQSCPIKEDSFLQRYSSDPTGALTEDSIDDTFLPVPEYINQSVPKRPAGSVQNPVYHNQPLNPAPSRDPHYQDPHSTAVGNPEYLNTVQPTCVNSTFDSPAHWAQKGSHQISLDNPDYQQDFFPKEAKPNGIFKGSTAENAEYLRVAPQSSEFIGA", "assay": "EGFR kinase multiplex FP/TR-RET assay (LOPAC screen and follow-up)", "format": "biochemical", "conditions": "re-assayed, two-fold dilutions"}, "[2]": {"assay": "Precipitation of compounds seen in the EGFR kinase assay", "format": "physicochemical", "conditions": "EGFR kinase assay conditions"}, "UCH-L3": {"target": "T2, UCH-L3 (Homo sapiens, UniProt P15374)", "T2 construct": "purchased Boston Biochem E-325", "T2 sequence (P15374 1-230)": "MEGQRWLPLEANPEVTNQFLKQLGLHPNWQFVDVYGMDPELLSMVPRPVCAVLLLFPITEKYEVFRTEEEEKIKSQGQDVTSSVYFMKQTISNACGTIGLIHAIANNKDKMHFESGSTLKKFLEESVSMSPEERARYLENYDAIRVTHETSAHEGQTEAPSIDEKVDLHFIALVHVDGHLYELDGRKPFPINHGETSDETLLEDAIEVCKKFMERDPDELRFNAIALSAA", "assay": "Deubiquitination TR-FRET assay with GFP-Ub-Tb, inhibitor titration", "format": "biochemical", "conditions": "0.1 nM UCH-L3 and 10 nM GFP-Ub-Tb"}}, "note": "Where “and” joins values, the source holds several entries; their conditions need not be identical. Identical values can stand only once.", "data": [{"compound": "COc1ccc(C[C@H]2NC[C@H](O)[C@H]2OC(C)=O)cc1", "note": "[Anisomycin]", "values": [{"measurement": "TR-FRET value of lysate, +Anisomycin", "setting": "RAW 264.7 cells; 10 ug/ml Anisomycin 15 minutes, 0.003051758 % Cell Lysate in 5 uL Addition", "value": "0.1308 and 0.1312"}, {"measurement": "TR-FRET value of lysate, +Anisomycin", "setting": "RAW 264.7 cells; 10 ug/ml Anisomycin 15 minutes, 0.006103516 % Cell Lysate in 5 uL Addition", "value": "0.1395 and 0.1339"}, {"measurement": "TR-FRET value of lysate, +Anisomycin", "setting": "RAW 264.7 cells; 10 ug/ml Anisomycin 15 minutes, 0.01220703 % Cell Lysate in 5 uL Addition", "value": "0.1419 and 0.1424"}, {"measurement": "TR-FRET value of lysate, +Anisomycin", "setting": "RAW 264.7 cells; 10 ug/ml Anisomycin 15 minutes, 0.02441406 % Cell Lysate in 5 uL Addition", "value": "0.1479 and 0.1534"}, {"measurement": "TR-FRET value of lysate, +Anisomycin", "setting": "RAW 264.7 cells; 10 ug/ml Anisomycin 15 minutes, 0.04882813 % Cell Lysate in 5 uL Addition", "value": "0.1572 and 0.1894"}, {"measurement": "TR-FRET value of lysate, +Anisomycin", "setting": "RAW 264.7 cells; 10 ug/ml Anisomycin 15 minutes, 0.09765625 % Cell Lysate in 5 uL Addition", "value": "0.2161 and 0.2286"}, {"measurement": "TR-FRET value of lysate, +Anisomycin", "setting": "RAW 264.7 cells; 10 ug/ml Anisomycin 15 minutes, 0.1953125 % Cell Lysate in 5 uL Addition", "value": "0.2474 and 0.3145"}, {"measurement": "TR-FRET value of lysate, +Anisomycin", "setting": "RAW 264.7 cells; 10 ug/ml Anisomycin 15 minutes, 0.390625 % Cell Lysate in 5 uL Addition", "value": "0.2813 and 0.3421"}, {"measurement": "TR-FRET value of lysate, +Anisomycin", "setting": "RAW 264.7 cells; 10 ug/ml Anisomycin 15 minutes, 0.78125 % Cell Lysate in 5 uL Addition", "value": "0.3722 and 0.4739"}, {"measurement": "TR-FRET value of lysate, +Anisomycin", "setting": "RAW 264.7 cells; 10 ug/ml Anisomycin 15 minutes, 1.5625 % Cell Lysate in 5 uL Addition", "value": "0.4554 and 0.5687"}, {"measurement": "TR-FRET value of lysate, +Anisomycin", "setting": "RAW 264.7 cells; 10 ug/ml Anisomycin 15 minutes, 3.125 % Cell Lysate in 5 uL Addition", "value": "0.5703 and 0.707"}, {"measurement": "TR-FRET value of lysate, +Anisomycin", "setting": "RAW 264.7 cells; 10 ug/ml Anisomycin 15 minutes, 6.25 % Cell Lysate in 5 uL Addition", "value": "0.5917 and 0.7878"}, {"measurement": "TR-FRET value of lysate, +Anisomycin", "setting": "RAW 264.7 cells; 10 ug/ml Anisomycin 15 minutes, 12.5 % Cell Lysate in 5 uL Addition", "value": "0.7483 and 0.8384"}, {"measurement": "TR-FRET value of lysate, +Anisomycin", "setting": "RAW 264.7 cells; 10 ug/ml Anisomycin 15 minutes, 25 % Cell Lysate in 5 uL Addition", "value": "0.8474 and 0.8571"}, {"measurement": "TR-FRET value of lysate, +Anisomycin", "setting": "RAW 264.7 cells; 10 ug/ml Anisomycin 15 minutes, 50 % Cell Lysate in 5 uL Addition", "value": "0.9027 and 0.9226"}, {"measurement": "TR-FRET value of lysate, +Anisomycin", "setting": "RAW 264.7 cells; cells stimulated with 10 ug/ml Anisomycin 15 minutes, 100 % Cell Lysate in 5 uL Addition", "value": "0.9796 and 0.9768"}]}, {"compound": "NC(=O)c1cc(N2CC2)c([N+](=O)[O-])cc1[N+](=O)[O-]", "note": "[CB-1954]", "values": [{"measurement": "inhibitor on re-assay", "setting": "[1]", "value": "neither was seen to be an inhibitor"}]}, {"compound": "CC(C)[C@@]1(NC(=O)[C@@H]2C=C3c4cccc5[nH]cc(c45)C[C@H]3N(C)C2)O[C@@]2(O)[C@@H]3CCCN3C(=O)[C@H](Cc3ccccc3)N2C1=O", "note": "[Ergocristine]", "values": [{"measurement": "precipitation in the assay", "setting": "[2]", "value": "seen to precipitate"}]}, {"compound": "O=C1Nc2ccc(I)cc2/C1=C/c1cc(Br)c(O)c(Br)c1", "note": "[GW5074]", "values": [{"measurement": "precipitation in the assay", "setting": "[2]", "value": "seen to precipitate"}]}, {"compound": "Oc1ccccc1O", "note": "[Pyrocatechol]", "values": [{"measurement": "inhibitor on re-assay", "setting": "[1]", "value": "neither was seen to be an inhibitor"}]}, {"compound": "ubiquitin aldehyde", "values": [{"measurement": "IC50", "setting": "UCH-L3", "value": 0.2, "unit": "nM"}]}]}
